The subject of test [1] is Lipoperoxides. Put plainly: Liver lipoperoxides (MDA) after CCl4. The class given is in vivo, mice. How it is done:
Female Balb/c mice (22-24 g) were maintained at 20° C. and a 12 hours light/dark cycle. The food and water allowed adliboti. Mice were randomly assigned to groups of 20 individuals. Twenty-four hours after the last dosing, animals were administered an oral dose of CCl4 (1%, v/v, in olive oil) at 1.0 mmol/kg. In treatment group, mice were treated intragastrically with SCS at daily dose of 50 mg/kg for 4 days. Control animals were given the vehicle (i.e. olive oil, 1 mL/kg). […]
The experiments were performed as previously described.
In the present study, the effect of SCS on lipoperoxides was examined.

The subject of test [2] is Hepatoma. Put plainly: DNA synthesis of cancer cells ([^3H]TdR incorporation), hepatoma. It is filed as in vivo, rats. The procedure: The method of animal and liver was described previously. Ascitric hepatoma, S180-ν, the transplantable 3924 used. After treatment with SCS (100 mg/kg), rats were injected with [^3H]-TdR (10 μc/μmole). Two hours after injection the animals were decapitated and examined. Livers and tumors were rapidly removed and blotted on filter paper. Tumors were carefully dissected free of necrotic, hemorrhagic, and nontumorous material. Tissues were minced with sharp scissors and 2 gm. DNA was prepared from the tissues. The radioactivity of the DNA was determined by liquid scintillation counting.
The incorporation of thymidine into DNA ws expressed as cpm/mg of DNA or cpm/gm of tissue.

In test [3] the test system is Glutathione S-trasferase (GST). Briefly: Liver GST activity in CCl4-intoxicated mice. It is filed as in vivo. The procedure: (§1) Female Balb/c mice (22-24 g) were maintained at 20° C. and a 12 hours light/dark cycle. The food and water allowed adliboti. Mice were randomly assigned to groups of 20 individuals. Twenty-four hours after the last dosing, animals were administered an oral dose of CCl4 (1%, v/v, in olive oil) at 1.0 mmol/kg. In treatment group, mice were treated intragastrically with SCS at daily dose of 50 mg/kg for 4 days. Control animals were given the vehicle (i.e. olive oil, 1 mL/kg). Twenty-four hours after intoxication, heparinized blood samples were drawn from ether-anesthetized mice by cardiac puncture, and the animals were killed by cardiac excision thereafter.
(§2) The rats were starved overnight before decapitation. The livers were perfused in situ with ice-cold 1.15% KCl solution. Tissue homogenate was prepared by homogenizing 1 g of hepatic tissue sample in 10 mL ice-cold homogenizing buffer with two 10-secbursts of atissue disintegrator at 135,000 rpm. Hepatic mitochondrial fraction was prepared by differential centrifugation in isotonic buffer ([…], 0.1 mM EDTA, 5 mM Tris, pH 7.4).
Glutathione S-trasferase (GST) was determined. Total GST activity in the 105000 g supernatants of the liver homogenate was measured in 100 mM postassium-phosphate buffer (pH 6.5) containing 1 mM glutathione and 1 mM 1-chloro-2, 4-dinitrobenzene.

Test [4] concerns Aminopyrine demethylase. Briefly: Hepatic microsomal monooxygenases: aminopyrine demethylase. It is filed as in vivo. To be noted: rat liver microsomes, treatment group. In general terms: Liver microsomes are a subcellular fraction often used to study metabolism.
The test system of test [5] is Benzpyrene hydroxylase. Put plainly: Hepatic microsomal monooxygenases: benzpyrene hydroxylase. It is filed as in vivo. To be noted: rat liver microsomes, treatment group.
For test [6], the system named is c-myb RNA. Briefly: Inhibition of oncogene expression in ML-1 cells (northern blot), c-myb. It is filed as cell-based, Human. How it is done: Human myeloblastic leukemic cells (ML-1) were maintained in suspension culture in RPMI 1640 medium supplemented with 7.5% heat-inactivated FBS. Cells growth and viability were assayed by hemocytometer using trypan-blue dye exclusion.
RNA was isolated by the CsCl gradient modification. RNA pellets were washed twice by reprecipitation in ethanol and quantitated by absorbency at […]. RNA analyzed by electrophoresis of 15 μg of RNA through 1.2% agarose formaldehyde gels followed by northern blot transfer to nitrocellulose.
Single-standard uniformly labeled DNA probes were prepared. Probe of c-myc was a 1.7 Kb cla-Eco RI restriction fragment containing the 3′exon region of human c-myc and probe of c-myb was 1.0 Kb myb-specific Bam HI fragment. Probes for n-ras contained DNA fragments using a modification of the PCR technique. Probes for myb, myc and n-ras were isolated. The isolated fragments were labeled to high specific activity with [α^32P]-dCTP (3000 ci/mmol).
Prehybridization of the filter was performed. The hybridization mixer contained 50,000 cpm of probe. The probes were hybridized at 58° C. in 15 mM NaCl, […] sodium citrate for 3 hours. After hybridization, they were exposed to XAR-5 film. Oncogene expression was quantitated by densitometer scanning of the autoradiography.

The subject of test [7] is YAC-1. Briefly: NK cell activity of mice (^51Cr release), YAC-1 target cells. The class given is in vivo. The note with it: oral dose of 100 mg/kg.
Test [8] has as its system RBL-5. Put plainly: NK cell activity of mice (^51Cr release), RBL-5 target cells. It is filed as in vivo. To be noted: oral dose of 100 mg/kg.
Test [9] has as its system Glutathione (GSH). Put plainly: Hepatic mitochondrial GSH level in CCl4-treated mice. The note with it: CCl4 + SCS. The class given is in vivo. How it is done:
as §1, §2
The experiments of animal and livers were performed as previously described. Glutathione (GSH) level was determined by an HPLC method. In the present study, the effect of SCS on GHS and GRD were examined.

Test [10] has as its system mitochondrion oxygen consumption. Briefly: Mitochondrion oxygen consumption (respiratory control ratio) with TET. The class given is biochemical. The note with it: TET 5 μl/L + SCS (100 μmol/L). How it is done: In present study, the effect of SCS on ATP and oxygen consumption was examined. The experiments of animal and livers were performed as previously described.

For the molecule `COc1cc2c(c(OC)c1OC)-c1c(cc(OC)c(OC)c1OC)C[C@](C)(O)[C@@H](C)C2` [SCS, Schisandrin], the “Lipoperoxides (mmol MDA/g liver protein)” value in test [1] (1 h) turned out to be 0.70 ± 0.07 mmol MDA/g liver protein; in test [1] (3 h), 0.65 ± 0.069 mmol MDA/g liver protein; in test [1] (6 h), 0.60 ± 0.70 mmol MDA/g liver protein; in test [1] (12 h), 0.52 ± 0.60 mmol MDA/g liver protein; in [1] (24 h), 0.50 ± 0.58 mmol MDA/g liver protein. In addition, the “Lipoperoxides T/C” value is 87% in test [1] (1 h); 72% in [1] (3 h); 55% in test [1] (6 h); 40% in test [1] (12 h); 22% in test [1] (24 h). The “Tissue inhibition rate (%)” value in test [2] (Hepatoma T versus C) was 56.4%. Further, the “[^3H]TdR into DNA × 10^−3 cm/mg” value in test [2] (Hepatoma T, SCS 100 mg/kg) is reported as 8.8 ± 0.80 × 10^−3 cm/mg. Also, the GST activity in test [3] (CCl4 + SCS, liver homogenate supernatant) turned out to be 2.60 ± 0.28 μmol/mg protein. Moreover, in test [3] (versus CCl4 control), the “Inhibition of GST activity” value amounted to 55.5%. This molecule also had an Aminopyrine demethylase in test [4] of 180.0 ± 20 nmol HCHO/mg protein. In test [5], this molecule returned a Benzpyrene hydroxylase of 51.8 ± 6.5 nmol/mg protein. For the same molecule, the “Inhibition (%) c-myb RNA” value in test [6] (SCS concentration 10 ng/ml) was 65.0 ± 5.7%; in [6] (SCS concentration 50 ng/ml), 67.7 ± 6.8%. In addition, the “% Specific lysis (mean ± SEM) YAC-1” value in [7] (effector/target 50:1) is recorded as 45.0 ± 3.6 %; in test [7] (effector/target 100:1), 64.0 ± 7.1%. The figures for the “% Specific lysis (mean ± SEM) RBL-5” value in test [8] (effector/target 50:1) and in test [8] (effector/target 100:1) were 12.1 ± 1.2 % and 19.8 ± 2.0 %, respectively. In addition, the GSH in test [9] is 21.8 ± 2.0 nmol/mg protein. Also, the “RCR (respiratory control ratio)” value in test [10] amounted to 12.5 ± 1.10.

The values are drawn from patent US6605305B2, “Plant drug for treatment of liver disease” (priority 2001, dated 2003).
